Measurements as given in patent US20240277829A1, “HIV-1 VACCINATION AND SAMT-247 MICROBICIDE TO PREVENT HIV-1 INFECTION” (priority 2021, published 2024).

Key:
Format in all cases: cell-based
human NK cells = test: Zinc intensity by confocal microscopy
Protocol: Zinc intensity. NKG2A^+ NK cells were isolated from cryopreserved healthy human PBMCs. NK cells were labeled with APC anti-NKG2A (Z199, cat. #A60797) from Beckman coulter, followed by separation with APC MicroBeads (#130-090-855, Miltenyi Biotec Inc.) using manufacturer instructions. Subsequently NK cells were cultured in the presence or absence of SAMT-247 and/or PMA stimulation for 7 hours. Cells were plated on ibidi chamber slides. Cells were washed and treated with zinc chelator or remained untreated for 30 minutes according to the manufacturers' recommendation using a cell-based Zinc assay kit (cat. #ab241014, Abcam). Subsequently cells were washed and stained with Zinc probe-green (cat. #ab241014, Abcam) and DAPI (Molecular Probes, Waltham, MA, USA) was used to visualize nuclei. Signals were visualized with a confocal laser-scanning microscope (Leica SP8, Buffalo Grove, IL, USA). Image processing was performed using the Imaris 9.2.1 software.

CD14^+ monocytes = test: Zinc chelation: macaque blood monocytes, SAMT-247 and/or gp120 peptides with or without TPEN
Protocol: (§1) Zinc chelation: The frequencies and cytokine levels of NK cells, monocytes and T cells were measured in macaque blood. Cryopreserved PBMCs were thawed and cultured in R10 in the presence/or absence of SAMT-247 and/or gp120 peptides for 12 hours. Cells were incubated with or without Zinc chelator TPEN (cat. #P4413-100 MG, 5 μM) for 12 h. Subsequently, cells were stained for live cells with Live/Dead Blue dye (cat. #L34962, 0.5 μl) from Thermofisher; followed by surface staining with the following: Alexa 700 anti-CD3 (SP34-2; cat. #557917, 5 μl), BV711 anti-CD4 (L200; cat. #563913, 5 μl), BB700 anti-CD8 (RPA-T8; cat. #566452, 5 μl), BUV737 anti-CD20 (2H7; cat. #612848, 5 μl), PE anti-CD45 (D058-1283; cat. #552833, 5 μl), BV786 anti-CCR5 (3A9; cat. #565001, 5 μl), BV496 anti-CD16 (3G8; cat. #612944, 5 μl), BUV661 anti-HLA-DR (G46-6; cat. #612980, 5 μl), BUV805 anti-CD14 (M5E2; cat. #565779, 5 μl) from BD Biosciences; APC-H7 anti-CD11b (ICRF44; cat. #47-0118-42, 5 μl), PE-Cy5 anti-CD95 (ICRF44; cat. #15-0959-42, 5 μl) from eBioscience; APC anti-α4β7, provided by the NIH Nonhuman Primate Reagent Resource (R24 OD010976, and NIAID contract HHSN272201300031C); BV605 anti-CCR6 (G034E3; cat. #353420, 5 μl), BV650 anti-CXCR3 (G025H7; cat. #353730, 5 μl), from Biolegend and PE-Cy7 anti-NKG2A (Z199; cat. #B10246, 5 μl) from Beckman coulter for 30 minutes at room temperature. This was followed by permeabilization with a FOX3-transcription buffer set (cat. #00-5523-00) from eBioscience according to the manufacture's recommendation and subsequently intracellular staining with the following: BV750 anti-TNF-α (MAB11; cat. #566359, 5 μl), BUV395 anti-IFN-γ (B27; cat. #563563, 5 μl), BV510 anti-GranB (GB11; cat. #563388, 5 μl), BV421 anti-IL-10 (JES3-9D7; cat. #564053, 5 μl), PE-CF594 anti-Ki67 (B56; cat. #567120, 5 μl) from BD Biosciences and FITC anti-Perforin (pf-344; cat. #3465-7, 5 μl) from MABTECH for 30 minutes at room temperature. Flow cytometry acquisitions were performed on a FACSYMPHONY™ A5 and examined using FACSDIVA™ software (BD Biosciences).

Th1 and Th2 cells = test: Zinc chelation: macaque blood T cells, SAMT-247 and/or gp120 peptides with or without TPEN; details: for frequency of IFN-γ^+ Th1^+ cells / frequency of IFN-γ^+ Th1^+CCR5^+α4β7^+ cells / frequency of IFN-γ^+ Th1^+CCR5^−α4β7^− cells / frequency of IFN-γ^+ Th2^+ cells / frequency of IFN-γ^+ Th2^+CCR5^+α4β7^+ cells / frequency of IFN-γ^+ Th2^+CCR5^−α4β7^− cells / frequency of IL-10^+ Th1^+ cells / frequency of IL-10^+ Th1^+CCR5^+α4β7^+ cells / frequency of IL-10^+ Th1^+CCR5^−α4β7^− cells / frequency of IL-10^+ Th2^+ cells / frequency of IL-10^+ Th2^+CCR5^+α4β7^+ cells / frequency of IL-10^+ Th2^+CCR5^−α4β7^− cells / frequency of TNF-α^+ Th1^+ cells / frequency of TNF-α^+ Th1^+CCR5^+α4β7^+ cells / frequency of TNF-α^+ Th1^+CCR5^−α4β7^− cells / frequency of TNF-α^+ Th2^+ cells / frequency of TNF-α^+ Th2^+CCR5^+α4β7^+ cells: with vs without zinc chelator
Protocol: as §1

NKG2A^+ cells = test: Zinc chelation: macaque blood NK cells, SAMT-247 and/or gp120 peptides with or without TPEN; details: for frequency of IFN-γ^+ NKG2A^+ cells / frequency of TNF-α^+ NKG2A^+ cells: with vs without zinc chelator
Protocol: as §1

NKG2A^+ NK cells = test: Intracellular cytokines of human blood NK cells using SAMT-247 and PMA stimulation with or without zinc chelator; details: PMA stimulation with or without SAMT-247, presence of TPEN
Protocol: Intracellular cytokines of Human blood NK cells using SAMT-247 and PMA stimulation with or without zinc chelator. The levels of NKG2A^+ NK cells were measured in blood of healthy humans. Human PBMCs were thawed and cultured in R10 in the presence or absence of SAMT-247 and/or PMA for 12 hours. Cells were incubated with or without Zinc chelator TPEN (cat. #P4413-100 MG, 5 μM) for 12 h. Subsequently, PBMCs were surface stained with the following: BUV737 anti-CD3 (SP34-2; cat. #741872, 5 μl), Alexa700 anti-CD20 (2H7; cat. #560631, 5 μl), BV786 anti-CD45 (HI30; cat. #563716, 5 μl) from BD Biosciences; APC-H7 anti-CD11b (ICRF44; cat. #47-0118-42, 5 μl) from eBioscience and PE-Cy7 anti-NKG2A (Z199; cat. #B10246, 5 μl) from Beckman coulter for 30 minutes at room temperature. This was followed by permeabilization with FOX3-transcription buffer set (cat. #00-5523-00) from eBioscience according to the manufacture's recommendation and subsequently intracellular staining with the following: BV750 anti-TNF-α (MAB11; cat. #566359, 5 μl), BUV396 anti-IFN-γ (B27; cat. #563563, 5 μl), BV510 anti-GranB (GB11; cat. #563388, 5 μl) from BD Biosciences; and FITC anti-Perforin (pf-344; cat. #3465-7, 5 μl) from MABTECH for 30 minutes at room temperature. Flow cytometry acquisitions were performed on a FACSymphony A5 and examined using FACSDIVA™ software (BD Biosciences).

[1] = SAMT-247, with vs without zinc chelator
[2] = gp120 pooled peptide + SAMT-247, with vs without zinc chelator
[3] = gp120 pooled peptide, with vs without zinc chelator
[4] = gp120 pooled peptides ± SAMT-247, TPEN treatment
[5] = gp120 pooled peptide + SAMT-247

c1ccc(CN(CCN(Cc2ccccn2)Cc2ccccn2)Cc2ccccn2)nc1 [Zinc chelator, N, N,N′,N′ tetrakis-(2-pyridyl-methyl) ethylendiamine]
significantly decreased: IFN-γ and TNF-α expression in NKG2A^+ cells (NKG2A^+ cells; gp120 peptide and gp120 peptide/SAMT-247 treated cells, TPEN)
↓: frequency of CD14^+ cells (CD14^+ monocytes; [1]) | frequency of IL-10^+ CD14^+ cells (CD14^+ monocytes; [1]) | frequency of CD14^+ cells (CD14^+ monocytes; [2]) | frequency of IL-10^+ CD14^+ cells (CD14^+ monocytes; [2]) | frequency of CD14^+ cells (CD14^+ monocytes; [3]) | frequency of IL-10^+ CD14^+ cells (CD14^+ monocytes; [3]) | frequency of IFN-γ^+ Th1^+ cells (Th1 and Th2 cells; SAMT-247) | frequency of IFN-γ^+ Th1^+CCR5^+α4β7^+ cells (Th1 and Th2 cells; SAMT-247) | frequency of IFN-γ^+ Th1^+CCR5^−α4β7^− cells (Th1 and Th2 cells; SAMT-247) | frequency of IFN-γ^+ Th2^+ cells (Th1 and Th2 cells; SAMT-247) | frequency of IFN-γ^+ Th2^+CCR5^+α4β7^+ cells (Th1 and Th2 cells; SAMT-247) | frequency of IFN-γ^+ Th2^+CCR5^−α4β7^− cells (Th1 and Th2 cells; SAMT-247) | frequency of IL-10^+ Th1^+ cells (Th1 and Th2 cells; SAMT-247) | frequency of IL-10^+ Th1^+CCR5^+α4β7^+ cells (Th1 and Th2 cells; SAMT-247) | frequency of IL-10^+ Th1^+CCR5^−α4β7^− cells (Th1 and Th2 cells; SAMT-247) | frequency of IL-10^+ Th2^+ cells (Th1 and Th2 cells; SAMT-247) | frequency of IL-10^+ Th2^+CCR5^+α4β7^+ cells (Th1 and Th2 cells; SAMT-247) | frequency of IL-10^+ Th2^+CCR5^−α4β7^− cells (Th1 and Th2 cells; SAMT-247) | frequency of TNF-α^+ Th1^+ cells (Th1 and Th2 cells; SAMT-247) | frequency of TNF-α^+ Th1^+CCR5^+α4β7^+ cells (Th1 and Th2 cells; SAMT-247) | frequency of TNF-α^+ Th1^+CCR5^−α4β7^− cells (Th1 and Th2 cells; SAMT-247) | frequency of TNF-α^+ Th2^+ cells (Th1 and Th2 cells; SAMT-247) | frequency of TNF-α^+ Th2^+CCR5^+α4β7^+ cells (Th1 and Th2 cells; SAMT-247) | frequency of IFN-γ^+ Th1^+CCR5^+α4β7^+ cells (Th1 and Th2 cells; Unstim) | frequency of IL-10^+ Th1^+CCR5^+α4β7^+ cells (Th1 and Th2 cells; Unstim) | frequency of IL-10^+ Th1^+CCR5^−α4β7^− cells (Th1 and Th2 cells; Unstim) | frequency of IL-10^+ Th2^+CCR5^+α4β7^+ cells (Th1 and Th2 cells; Unstim) | frequency of TNF-α^+ Th2^+CCR5^+α4β7^+ cells (Th1 and Th2 cells; Unstim) | frequency of IFN-γ^+ Th1^+ cells (Th1 and Th2 cells; [5]) | frequency of IFN-γ^+ Th1^+CCR5^+α4β7^+ cells (Th1 and Th2 cells; [5]) | frequency of IFN-γ^+ Th1^+CCR5^−α4β7^− cells (Th1 and Th2 cells; [5]) | frequency of IFN-γ^+ Th2^+ cells (Th1 and Th2 cells; [5]) | frequency of IFN-γ^+ Th2^+CCR5^+α4β7^+ cells (Th1 and Th2 cells; [5]) | frequency of IFN-γ^+ Th2^+CCR5^−α4β7^− cells (Th1 and Th2 cells; [5]) | frequency of IL-10^+ Th1^+ cells (Th1 and Th2 cells; [5]) | frequency of IL-10^+ Th1^+CCR5^+α4β7^+ cells (Th1 and Th2 cells; [5]) | frequency of IL-10^+ Th1^+CCR5^−α4β7^− cells (Th1 and Th2 cells; [5]) | frequency of IL-10^+ Th2^+ cells (Th1 and Th2 cells; [5]) | frequency of IL-10^+ Th2^+CCR5^+α4β7^+ cells (Th1 and Th2 cells; [5]) | frequency of IL-10^+ Th2^+CCR5^−α4β7^− cells (Th1 and Th2 cells; [5]) | frequency of TNF-α^+ Th1^+CCR5^−α4β7^− cells (Th1 and Th2 cells; [5]) | frequency of TNF-α^+ Th2^+ cells (Th1 and Th2 cells; [5]) | frequency of TNF-α^+ Th2^+CCR5^+α4β7^+ cells (Th1 and Th2 cells; [5]) | frequency of IFN-γ^+ Th1^+CCR5^+α4β7^+ cells (Th1 and Th2 cells; gp120 pooled peptide) | frequency of IFN-γ^+ Th1^+CCR5^−α4β7^− cells (Th1 and Th2 cells; gp120 pooled peptide) | frequency of IFN-γ^+ Th2^+ cells (Th1 and Th2 cells; gp120 pooled peptide) | frequency of IFN-γ^+ Th2^+CCR5^+α4β7^+ cells (Th1 and Th2 cells; gp120 pooled peptide) | frequency of IL-10^+ Th1^+CCR5^+α4β7^+ cells (Th1 and Th2 cells; gp120 pooled peptide) | frequency of IL-10^+ Th1^+CCR5^−α4β7^− cells (Th1 and Th2 cells; gp120 pooled peptide) | frequency of IL-10^+ Th2^+CCR5^+α4β7^+ cells (Th1 and Th2 cells; gp120 pooled peptide) | frequency of IL-10^+ Th2^+CCR5^−α4β7^− cells (Th1 and Th2 cells; gp120 pooled peptide) | frequency of TNF-α^+ Th1^+ cells (Th1 and Th2 cells; gp120 pooled peptide) | frequency of TNF-α^+ Th1^+CCR5^+α4β7^+ cells (Th1 and Th2 cells; gp120 pooled peptide) | frequency of TNF-α^+ Th2^+CCR5^+α4β7^+ cells (Th1 and Th2 cells; gp120 pooled peptide) | frequency of IFN-γ^+ NKG2A^+ cells (NKG2A^+ cells; [5]) | frequency of TNF-α^+ NKG2A^+ cells (NKG2A^+ cells; [5]) | frequency of IFN-γ^+ NKG2A^+ cells (NKG2A^+ cells; gp120 pooled peptide) | frequency of TNF-α^+ NKG2A^+ cells (NKG2A^+ cells; gp120 pooled peptide)
significantly reduced: IFN-γ and TNF-α expression in human NKG2A^+ cells (NKG2A^+ NK cells)
significantly lower: zinc intensity of PMA+SAMT-247 stimulated cells vs not treated with chelator (human NK cells)
decreased: IL-10 production by CD14^+ cells (CD14^+ monocytes; [4]) | frequency of CD14^+ cells (CD14^+ monocytes; [4]) | INF-γ and IL-10 production in Th2 CCR5^−α4β7^− cells (Th1 and Th2 cells; TPEN) | number of Th1 CCR5^−α4β7^− cells (Th1 and Th2 cells; week 17, gp120 pooled peptides ± SAMT-247, Zn chelation)
No significant changes: SAMT-247's ability to increase granzyme B and perforin in NKG2A^+ cells (NKG2A^+ cells; gp120 peptide stimulation, presence of TPEN)
decreased percentage: percentage of CCR5^+α4β7^+ Th1 and Th2 cells (Th1 and Th2 cells; week 17, gp120 pooled peptides ± SAMT-247, TPEN)
